Test results reported in publication PMC4890785, “Recombinant L-Asparaginase from Zymomonas mobilis: A Potential New Antileukemic Agent Produced in Escherichia coli” (PLoS ONE, 2016).

Molecular target: T1, L-asparaginase from Z. mobilis (L-AspZ) (Zymomonas mobilis, UniProt Q5NLV3)
T1 construct: gene ZMO1683; first 29 residues (signal peptide) removed; codon-optimised gene in E. coli BL21(DE3): pET26b (pelB, extracellular) or pET28a (cytoplasmic); not purified
Assay: ammonia release, salicylate-hypochlorite (indophenol) colorimetry
Assay type: biochemical
Conditions: sonicated E. coli lysate or concentrated culture medium; 37 °C, pH 7.3, 20 mM sodium phosphate; asparagine stock 5 g/L mixed 1:1; uninduced control tested

T1 sequence (Q5NLV3 entry or part of it): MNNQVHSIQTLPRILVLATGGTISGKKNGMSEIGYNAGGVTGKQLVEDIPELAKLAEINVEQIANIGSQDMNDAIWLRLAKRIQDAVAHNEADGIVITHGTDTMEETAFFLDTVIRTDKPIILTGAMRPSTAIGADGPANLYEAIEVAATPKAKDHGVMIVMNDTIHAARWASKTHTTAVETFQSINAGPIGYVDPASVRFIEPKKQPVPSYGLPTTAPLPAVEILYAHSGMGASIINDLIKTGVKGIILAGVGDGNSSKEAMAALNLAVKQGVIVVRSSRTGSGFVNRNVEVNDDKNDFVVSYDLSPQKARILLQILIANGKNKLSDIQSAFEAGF

NC(=O)C[C@H](N)C(=O)O [asparagine] was tested, and the “ammonia release, salicylate-hypochlorite (indophenol) colorimetry” value was “Enzyme activity was measured by hydrolyzing asparagine to aspartate and ammonia”.
